Experimental data published in PubChem BioAssay (NCI).
Values joined by “and” are separate entries in the source; they are usually repeats but may differ in a detail not shown here. Equal entries are not always repeated.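 How tested: cells in 96-well plates exposed to compound for 48 hours at five concentrations. Abbreviation: GI50, concentration required for 50% inhibition of growth. TGI: total growth inhibition.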

Key:
Assay in all cases: DTP human tumour cell line panel, 48 h
HT29 colon = system: HT29 colon
786-0 renal = system: 786-0 renal
SN12C renal = system: SN12C renal
OVCAR-8 ovarian = system: OVCAR-8 ovarian
HOP-62 NSCLC = system: HOP-62 NSCLC
HL-60(TB) leukemia = system: HL-60(TB) leukemia
MDA-N = system: MDA-N
DMS 114 small cell lung = system: DMS 114 small cell lung
CAKI-1 renal = system: CAKI-1 renal
NCI-H23 lung = system: NCI-H23 lung
UACC-62 melanoma = system: UACC-62 melanoma
U251 CNS = system: U251 CNS
HCC-2998 colon = system: HCC-2998 colon
SNB-78 CNS = system: SNB-78 CNS
MOLT-4 leukemia = system: MOLT-4 leukemia
OVCAR-4 ovarian = system: OVCAR-4 ovarian
DU-145 prostate = system: DU-145 prostate
MCF7 breast = system: MCF7 breast
HCT-116 colon = system: HCT-116 colon
RPMI-8226 leukemia = system: RPMI-8226 leukemia
EKVX NSCLC = system: EKVX NSCLC
HOP-92 NSCLC = system: HOP-92 NSCLC
M14 melanoma = system: M14 melanoma
SK-OV-3 ovarian = system: SK-OV-3 ovarian
TK-10 renal = system: TK-10 renal
MDA-MB-231 breast = system: MDA-MB-231 breast
KM20L2 colon = system: KM20L2 colon
BT-549 breast = system: BT-549 breast
PC-3 prostate = system: PC-3 prostate
A549 NSCLC = system: A549 NSCLC
RXF 393 renal = system: RXF 393 renal
CCRF-CEM leukemia = system: CCRF-CEM leukemia
SN12K1 renal = system: SN12K1 renal
KM12 colon = system: KM12 colon
ACHN renal = system: ACHN renal
MDA-MB-435 = system: MDA-MB-435
SK-MEL-5 melanoma = system: SK-MEL-5 melanoma
SK-MEL-28 melanoma = system: SK-MEL-28 melanoma
A498 renal = system: A498 renal
HOP-18 NSCLC = system: HOP-18 NSCLC
NCI/ADR-RES ovarian = system: NCI/ADR-RES ovarian
NCI-H522 lung = system: NCI-H522 lung
DMS 273 small cell lung = system: DMS 273 small cell lung
NCI-H460 lung = system: NCI-H460 lung
UACC-257 melanoma = system: UACC-257 melanoma
LOX IMVI melanoma = system: LOX IMVI melanoma
SF-295 CNS = system: SF-295 CNS
MALME-3M melanoma = system: MALME-3M melanoma
M19-MEL melanoma = system: M19-MEL melanoma
HS 578T breast = system: HS 578T breast
NCI-H226 lung = system: NCI-H226 lung
SR leukemia = system: SR leukemia
UO-31 renal = system: UO-31 renal
K-562 leukemia = system: K-562 leukemia
T-47D breast = system: T-47D breast
HCT-15 colon = system: HCT-15 colon
COLO 205 colon = system: COLO 205 colon
OVCAR-5 ovarian = system: OVCAR-5 ovarian
SK-MEL-2 melanoma = system: SK-MEL-2 melanoma
SNB-75 CNS = system: SNB-75 CNS
DLD-1 colon = system: DLD-1 colon
SF-268 CNS = system: SF-268 CNS
SNB-19 CNS = system: SNB-19 CNS
SF-539 CNS = system: SF-539 CNS
OVCAR-3 ovarian = system: OVCAR-3 ovarian
SW-620 colon = system: SW-620 colon
IGROV1 ovarian = system: IGROV1 ovarian

Compound: CN(C)CCNC(=O)c1cccc2ccc(-c3ccc(O)cc3)nc12
- TGI (HT29 colon): 14.5 µM and 17.2 µM
- TGI (786-0 renal): 14.4 µM
- TGI (SN12C renal): 13.2 µM
- TGI (OVCAR-8 ovarian): 4.13 µM
- GI50 (HOP-62 NSCLC): 1.11 µM
- TGI (HOP-62 NSCLC): 7.2 µM and 4.47 µM
- TGI (HL-60(TB) leukemia): 3.36 µM
- TGI (MDA-N): 8.3 µM
- TGI (DMS 114 small cell lung): 10.8 µM and 7.31 µM
- TGI (CAKI-1 renal): 6.53 µM and 11.3 µM
- TGI (NCI-H23 lung): 10.1 µM and 12.4 µM
- GI50 (UACC-62 melanoma): 1.6 µM
- TGI (UACC-62 melanoma): 3.16 µM and 3.83 µM
- TGI (U251 CNS): 10.4 µM
- GI50 (HCC-2998 colon): 1.87 µM
- TGI (HCC-2998 colon): 17.5 µM and 14.1 µM
- TGI (SNB-78 CNS): 20.3 µM
- TGI (MOLT-4 leukemia): 0.692 µM
- TGI (OVCAR-4 ovarian): 10.4 µM and 12.2 µM
- TGI (DU-145 prostate): 10.6 µM
- TGI (MCF7 breast): 5.2 µM
- GI50 (HCT-116 colon): 0.879 µM
- TGI (HCT-116 colon): 2.78 µM and 10.7 µM
- TGI (RPMI-8226 leukemia): 8.56 µM
- TGI (EKVX NSCLC): 26.3 µM
- TGI (HOP-92 NSCLC): 11.3 µM and 11.6 µM
- TGI (M14 melanoma): 2.75 µM
- TGI (SK-OV-3 ovarian): 15.7 µM and 9.75 µM
- TGI (TK-10 renal): 9.57 µM
- TGI (MDA-MB-231 breast): 11.6 µM
- TGI (KM20L2 colon): 21.7 µM
- TGI (BT-549 breast): 19.5 µM
- TGI (PC-3 prostate): 8.86 µM
- TGI (A549 NSCLC): 7.17 µM
- GI50 (RXF 393 renal): 5.65 µM
- TGI (RXF 393 renal): 17.4 µM and 19.8 µM
- TGI (CCRF-CEM leukemia): 7.25 µM
- GI50 (SN12K1 renal): 0.383 µM
- TGI (SN12K1 renal): 3.21 µM and 2.35 µM
- GI50 (KM12 colon): 3.03 µM
- TGI (KM12 colon): 16.8 µM and 14.9 µM
- TGI (ACHN renal): 4.98 µM
- TGI (MDA-MB-435): 15.5 µM
- TGI (SK-MEL-5 melanoma): 2.96 µM
- GI50 (SK-MEL-28 melanoma): 4.14 µM
- TGI (SK-MEL-28 melanoma): 11.8 µM and 16.2 µM
- TGI (A498 renal): 12.1 µM
- GI50 (HOP-18 NSCLC): 2.44 µM
- TGI (HOP-18 NSCLC): 7.14 µM and 8.35 µM
- GI50 (NCI/ADR-RES ovarian): 6.8 µM
- TGI (NCI/ADR-RES ovarian): 23.7 µM and 26.3 µM
- GI50 (NCI-H522 lung): 2.26 µM
- TGI (NCI-H522 lung): 4.62 µM and 9.18 µM
- TGI (DMS 273 small cell lung): 6.07 µM
- GI50 (NCI-H460 lung): 0.637 µM
- TGI (NCI-H460 lung): 2.85 µM and 2.99 µM
- GI50 (UACC-257 melanoma): 1.06 µM
- TGI (UACC-257 melanoma): 8.29 µM and 10.1 µM
- TGI (LOX IMVI melanoma): 3.43 µM
- GI50 (SF-295 CNS): 2.82 µM
- TGI (SF-295 CNS): 10.8 µM
- GI50 (MALME-3M melanoma): 0.863 µM
- TGI (MALME-3M melanoma): 6.08 µM and 2.9 µM
- GI50 (M19-MEL melanoma): 2.12 µM
- TGI (M19-MEL melanoma): 7.04 µM and 6.83 µM
- TGI (HS 578T breast): 13.4 µM
- GI50 (NCI-H226 lung): 0.94 µM
- TGI (NCI-H226 lung): 6.33 µM and 3.6 µM
- TGI (SR leukemia): 15.7 µM
- GI50 (UO-31 renal): 1.58 µM
- TGI (UO-31 renal): 7.35 µM and 5.12 µM
- TGI (K-562 leukemia): 3.96 µM
- TGI (T-47D breast): 6.98 µM
- TGI (HCT-15 colon): 14.4 µM
- GI50 (COLO 205 colon): 2.31 µM
- TGI (COLO 205 colon): 14.6 µM and 14.4 µM
- TGI (OVCAR-5 ovarian): 9.11 µM
- TGI (SK-MEL-2 melanoma): 15.9 µM and 9.73 µM
- TGI (SNB-75 CNS): 11.7 µM
- GI50 (DLD-1 colon): 2.07 µM
- TGI (DLD-1 colon): 28 µM and 13.4 µM
- TGI (SF-268 CNS): 17.3 µM and 19.3 µM
- GI50 (SNB-19 CNS): 2.41 µM
- TGI (SNB-19 CNS): 15.4 µM and 12 µM
- TGI (SF-539 CNS): 15.1 µM and 13.9 µM
- TGI (OVCAR-3 ovarian): 15.2 µM and 15.9 µM
- TGI (SW-620 colon): 11.1 µM
- GI50 (IGROV1 ovarian): 2.06 µM
- TGI (IGROV1 ovarian): 15.7 µM and 11.8 µM
